Data taken from patent publication US4875922A, “Pyrimidine derivatives” (Imperial Chemical Industries PLC, priority 1986, dated 1989).

Legend:
[1] = test system: Barley; test: Whole plant screen for plant growth regulator activity, barley (BR); assay type: in vivo, Barley (Atem); settings: BR, 4000 ppm (4 kg/ha), visual score after 2-6 weeks; for T = Tillering or side shooting: * = decrease in tillering
Method in brief: (§1)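 Plants were sprayed with compound at 4000 ppm (4 kg/ha in a 1000 l/ha field volume) by tracksprayer and kept in a glasshouse under a 16 h photoperiod: maize and rice at 25° C. day/22° C. night, wheat and barley at 16° C. day/13° C. night. Morphology was scored visually after 2-6 weeks against formulation blanks.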

[2] = test system: Wheat; test: Whole plant screen for plant growth regulator activity, wheat (WW); assay type: in vivo, Wheat (Timmo); settings: WW, 4000 ppm (4 kg/ha), visual score after 2-6 weeks; for T = Tillering or side shooting: * = decrease in tillering
Method in brief: as §1

[3] = test system: Rice; test: Whole plant screen for plant growth regulator activity, rice (RC); assay type: in vivo, Rice (Ishikari); settings: 4000 ppm (4 kg/ha), visual score after 2-6 weeks
Method in brief: as §1

[4] = test system: Apple; test: Whole plant screen for plant growth regulator activity, apple (AP); assay type: in vivo, Apple (Red Delicious); settings: 4000 ppm (4 kg/ha), visual score after 2-6 weeks
Protocol: (§2) Compounds 1 to 3 in Table 1 were tested for plant growth regulator activity against five species for various growth effects relevant to plant growth regulation.
(§3) The plant species used in this screen are presented in Table II with the leaf stage at which they were sprayed. Each chemical was applied at 4000 ppm (4 kg/ha in a 1000 l/ha field volume) using a tracksprayer and a SS8004E (Teejet) nozzle.
(§4) After spray the plants were grown in a glasshouse with 25° C. day/22° C. night temperatures and supplementary lighting was supplied when necessary (from mercury vapour lamps), to provide a 16 hour photoperiod. The exception to this were the temperate cereals, wheat and barley which were grown in 16° C. day/13° C. night temperatures.
After 2-6 weeks in the glasshouse, depending on the time of year, the plants were visually assessed for morphological characteristics. Formulation blanks were used as controls to assess the plants.
Additional compounds in Table I were tested for plant growth regulator activity using the method of Example 60 except that Tomato was included in the test as an additional species. Tomato, Ailsa Craig, was grown in a single 3 inch pot in peat and treated at the 2 to 21/2 leaves growth stage. The results were presented in Table IV in which Tomato is indicated by the code TO and the Key is otherwise as for Table III.

[5] = test system: Tomato; test: Whole plant screen for plant growth regulator activity, tomato (TO); assay type: in vivo, Tomato (Ailsa Craig); settings: 4000 ppm (4 kg/ha), visual score after 2-6 weeks
Method in brief: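 Tomato (Ailsa Craig), one plant per 3-inch peat pot, sprayed at 2–2½ leaves with 4000 ppm (4 kg/ha in 1000 l/ha) by track sprayer. Glasshouse 25 °C day/22 °C night, 16 h photoperiod; morphology visually scored after 2–6 weeks against formulation blanks.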

[6] = test system: Rice; test: Intermediate Retardant Test, rice; assay type: in vivo, Rice (Ishikari); settings: Oryza sativa, 672 h, overall spray, approximately 28 days, Table VI, read-out: Percentage Reduction in Height of Rice (Compared to formulation blank)
Excerpt: (§5) Three species are involved in this test RICE, SPRING-BARLEY and APPLES. The variety and growth stages at spray are outlined in Table V. Compounds were applied at 500 ppm and 2000 ppm respectively (0.5 kg and 2 kg/ha^-1 at a field volume of 1000 l/ha^-1) as an overall spray except in the case of certain tests on APPLES. This gives a foliar and root component in the test, i.e., this test will detect the activity of both root and foliar acting compounds. The intermediate retardant test on APPLES of which the results are given in Table IX was different, in that a foliar (only) spray at 2000 ppm was compared with a root drench, also at 2000 ppm. The rice was grown in 4" `paddy` pots, i.e., the roots and bottom of the stems are immersed in water under conditions corresponding to those in paddy fields. Spring barley and apples were grown in 4" pots. The plants were assessed for height to top-most ligule at approximately 28 days after treatment for spring barley and rice and for height to apex at approximately 28 days after the treatment for apples. In each case the result for the 500 ppm and 2000 ppm test for each compound is compared to the height of the formulation blank in that test, presented as a percentage reduction in height compared to the formulation blank.
(§6) The prior art compound was compared with compounds of the present invention in side-by-side comparisons using the Intermediate Retardant Test described in Example 62, and the results are given in Tables X to XII where `A` is the prior art compound, 2-methyl-1-isopropyl-1-(pyrimidin-5-yl)-propan-1-ol).

[7] = test system: Spring Barley; test: Intermediate Retardant Test, spring barley; assay type: in vivo, Spring Barley (Atem/kym); settings: Hordeum vulgare, 672 h, overall spray, approximately 28 days, Table VII, read-out: Percentage Reduction in Height of Spring Barley (Compared to formulation blank)
Excerpt: as §5, §6

[8] = test system: Apples; test: Intermediate Retardant Test, apples, foliar spray compared with root drench; assay type: in vivo, Apples (Red Delicious); settings: 672 h, approximately 28 days, Table IX, read-out: Percentage Reduction in Height of Apples (Compared to formulation blank); for percent reduction in plant height at 2000 ppm: 2000 ppm (Foliar); for percent reduction in plant height at 2000 µg/mL: soil, 2000 pmm (Root), root drench
Excerpt: as §5, §6

[9] = test system: Maize; test: Whole plant screen for plant growth regulator activity, maize (MZ); assay type: in vivo, Maize (Earliking); settings: 4000 ppm (4 kg/ha), visual score after 2-6 weeks
Protocol: as §2, §3, §4
After 2-6 weeks in the glasshouse, depending on the time of year, the plants were visually assessed for morphological characteristics. Formulation blanks were used as controls to assess the plants. […]

Compound | G = Greening effect [1] | I = Interligular or internodal length reduction [1] | R = Retardation [1] | T = Tillering or side shooting [1] | I = Interligular or internodal length reduction [2] | R = Retardation [2] | T = Tillering or side shooting [2] | I = Interligular or internodal length reduction [3] | R = Retardation [3] | G = Greening effect [4] | I = Interligular or internodal length reduction [4] | R = Retardation [4] | I = Interligular or internodal length reduction [5] | R = Retardation [5] | Percent reduction in rice height vs formulation blank at 500 ppm [6] [%] | Percent reduction in rice height vs formulation blank at 2000 ppm [6] [%] | percent reduction in plant height at 500 ppm [7] [%] | percent reduction in plant height at 2000 ppm [7] [%] | percent reduction in plant height at 2000 ppm [8] [%] | percent reduction in plant height at 2000 µg/mL [8] [%] | further results
CC(C)CCC(O)(c1cncnc1)C(C)C (centres unmarked) [Compound 13, 2-Methyl-1-(3-methylbutyl)-1-(pyrimidin-5-yl)-propan-1-ol] | 2 (31-60%) | 3 (61-100%) | 2 (31-60%) | 2 (31-60%) | 3 (61-100%) | 2 (31-60%) | 1 (10-30%) | 2 (31-60%) | 2 (31-60%) | 2 (31-60%) | 3 (61-100%) | 3 (61-100%) | 2 (31-60%) | 2 (31-60%) | 8 | 9 | 2 | 11 | 7 | 70 | G = Greening effect [3]: 1 (10-30%)
CCC(C)CCC(O)(c1cncnc1)C(C)C (centres unmarked) [Compound 6, 2-Methyl-1-(3-methylpentyl)-1-(pyrimidin-5-yl)propan-1-ol] | 1 (10-30%) | 3 (61-100%) | 2 (31-60%) | – | 3 (61-100%) | 3 (61-100%) | 1 (10-30%) | 2 (31-60%) | 2 (31-60%) | – | – | – | 2 (31-60%) | 2 (31-60%) | 26 | 50 | 22 | 57 | 18.8 | 72.1 | G = Greening effect [9]: 1 (10-30%); I = Interligular or internodal length reduction [9]: 2 (31-60%); R = Retardation [9]: 2 (31-60%); G = Greening effect [5]: 2 (31-60%)
CC(C)C(O)(C#CCCCCl)c1cncnc1 (centres unmarked) [Compound 8, 2-Methyl-1-(5-chloropen-1-yne)-1-(pyrimidin-5-yl)-propan-1-ol] | 2 (31-60%) | 2 (31-60%) | 3 (61-100%) | 1 (10-30%) | 3 (61-100%) | 3 (61-100%) | 3 (61-100%) | – | – | 2 (31-60%) | 3 (61-100%) | 3 (61-100%) | 3 (61-100%) | 3 (61-100%) | 43 | 54 | 31 | 63 | 6 | 49.3 | G = Greening effect [2]: 2 (31-60%); G = Greening effect [9]: 1 (10-30%); I = Interligular or internodal length reduction [9]: 3 (61-100%); R = Retardation [9]: 3 (61-100%); T = Tillering or side shooting ([9]; * = decrease in tillering): 1 (10-30%); G = Greening effect [5]: 2 (31-60%)
